From publication PMC8348070, “Structure-Based Designing, Solvent Less Synthesis of 1,2,3,4-Tetrahydropyrimidine-5-carboxylate Derivatives: A Combined In Vitro and In Silico Screening Approach” (Molecules, 2021)
Values after ≈ are worked out from the molar mass of the structure shown.

Tests used:
[1] = MTT cytotoxicity (cell viability) assay; type: cell-based, human; details: human, HepG2 cell line, 48 h, Figure 6
Protocol: (§1) Cells were treated with extracts/compound dissolved in DMSO with a final DMSO concentration of 0.05%. DMSO treated cells were used as control in all the experiments. Cell viability was determined by MTT assay as described by us previously. Briefly, HepG2 cells were treated with different concentrations of compounds for 48 h. […] Subsequently, 150 μL DMSO was added to dissolve formazan crystals and absorbance was measured at 490 nm in a microplate reader (Thermo Scientific, Waltham, MA, USA). The percentage of cell viability was calculated.

[2] = Antioxidant free radical scavenging activity using DPPH; type: biochemical; details: Figure 7 and text
Protocol: The potential of synthesized compounds to scavenge the free radicals were assessed by using diphenylpicrylhydrazyl (DPPH) as free radical [48].
These stock solutions were then subjected to prepare their dilutions up to 250 µg, 200 µg, 150 µg, 100 µg, 50 µg and 25 µg respectively. DPPH solution of 4% was prepared by mixing 0.004 g of DPPH in 100 ml methanol (commercial grade). Ascorbic acid was used as control and its solution was prepared by mixing 0.0017612 g into 100 ml of water having 100 µg concentration.
In test tubes 1 mL of sample from each diluted solution and 2 mL of DPPH solution was added. In the same way, 1 mL of the ascorbic acid was added along with 2 ml of DPPH as control and allowed to stand overnight.

HepG2 cells = experiment: MTT cytotoxicity (cell viability) assay; type: cell-based, human; details: Homo sapiens, HepG2, read-out: IC50 as anti-cancer agents
Protocol: as §1

SMILES | IC50 at 48 h [1] [µg/mL] | melting point [°C] | other results
CCOC(=O)C1=C(C)NC(=S)NC1c1ccccc1F (stereo not drawn) [Compound 5d, ethyl 4-(2-fluorophenyl)-6-methyl-2-thioxo-1,2,3,4-tetrahydropyrimidine-5-carboxylate] | 25.5 (≈ 86.7 µM) | – | –
CCOC(=O)C1=C(C)NC(=O)NC1c1ccc(F)cc1 (stereo not drawn) [Compound 5c, ethyl 4-(4-fluorophenyl)-6-methyl-2oxo-1,2,3,4-tetrahydropyrimidine-5-carboxylate] | 7.29 (≈ 26.2 µM) | – | IC50 as anti-oxidant agents [2]: 6.261 µM
CCOC(=O)C1=C(C)NC(=O)NC1c1ccccc1F (stereo not drawn) [Compound 5a, 4-(2-fluorophenyl)-6-methyl-2oxo-1,2,3,4-tetrahydropyrimidine-5-carboxylate] | 16 (≈ 57.5 µM) | 230 to 233 | –
CCOC(=O)C1=C(C)NC(=S)NC1c1ccc(F)cc1 (stereo not drawn) [Compound 5f, ethyl 4-(4-fluorophenyl)-6-methyl-2thioxo-1,2,3,4-tetrahydropyrimidine-5-carboxylate] | – | 233 to 235 | IC50 at 48 h ([1]; HepG2 cells): 18.7 µg/mL (≈ 63.5 µM)
CCOC(=O)C1=C(C)NC(=O)NC1c1cccc(F)c1 (stereo not drawn) [Compound 5b, ethyl 4-(3-fluorophenyl)-6-methyl-2oxo-1,2,3,4-tetrahydropyrimidine-5-carboxylate] | – | 210 to 213 | IC50 at 48 h ([1]; HepG2 cells): 11.3 µg/mL (≈ 40.5 µM)
CCOC(=O)C1=C(C)NC(=S)NC1c1cccc(Cl)c1 (stereo not drawn) [Compound 5h, ethyl 4-(3-chlorophenyl)-6-methyl-2thioxo-1,2,3,4-tetrahydropyrimidine-5-carboxylate] | 13 (≈ 41.7 µM) | – | –
CCOC(=O)C1=C(C)NC(=S)NC1c1cccc(F)c1 (stereo not drawn) [Compound 5e, ethyl 4-(3-fluorophenyl)-6-methyl-2-thioxo-1,2,3,4-tetrahydropyrimidine-5-carboxylate] | 5.35 (≈ 18.2 µM) | – | IC50 (HepG2 cells): 5.35 µg/mL (≈ 18.2 µM)
